According to patent US11883423B2, “Nucleobase analogue derivatives and their applications” (BOARD OF REGENTS, THE UNIVERSITY OF TEXAS SYSTEM, priority 2014, dated 2024):
Counter-ions that a name gives are not always drawn.

What was measured:
[1] = set-up: species or system BALB/c mice; details: female, BALB/c, mouse, in vivo, iv, 75 mg/kg, 1 h
Experimental: The biodistribution of Gem-DHA was further evaluated in healthy BALB/c mice. Briefly, female BALB/c mice (Charles River, 14-16 weeks, n=3) were injected via the tail vein with Gem-DHA in a Tween 80/ethanol/water solution containing 5% (w/v) mannitol at a dose of 75 mg/kg. After 1 h, mice were euthanized to collect pancreas, lung, spleen, liver, heart, and kidneys. Gem-DHA was extracted from the samples and analyzed using HPLC. As a control, mice (n=3) were also injected with gemcitabine HCl (75 mg/kg) in 5% (w/v) mannitol solution and euthanized 1 h later to collect their pancreas. Gemcitabine was extracted using the following method. Briefly, once the pancreas was collected, it was weighed, placed into 0.25 ml of PBS containing 40 μg of tetrahydrouridine (a deoxycytidine deaminase inhibitor) and homogenized using a bead beater. Deoxyuridine (dU, 20 μl of 20 μg/ml) was then added into the homogenate as an internal standard. Acetonitrile was used to precipitate the proteins twice, and gemcitabine content in the supernatant was analyzed using HPLC. […] Therefore, it appeared that Gem-DHA preferred to distribute in pancreatic tissues.

BxPC-3 cells [2] = assay: Cytotoxicity of Gem-ARA, MTT assay, BxPC-3 cells; format: cell-based, human; details: Homo sapiens, up to 72 h, mean ± SD (n>3)
Experimental: (§1) To understand the effect of the omega-3 polyunsaturated fatty acid nature of the DHA (i.e., the docosahexaedecanoyl group) in the Gem-DHA on its cytotoxicity against tumor cells, gemcitabine was also conjugated to arachidonic acid, an omega-6 polyunsaturated fatty acid, to synthesize 4-(N)-arachidonyl gemcitabine (Gem-ARA) (FIG. 4). Human pancreatic cancer cells (MIA PaCa-2 or BxPC-3) were seeded (3,000/well) in 96-well plates. After overnight incubation, cells were treated with various concentrations of gemcitabine HCl or Gem-ARA at 37° C., 5% CO2 for up to 72 h. Gemcitabine HCl was dissolved in phosphate buffered saline (PBS, pH 7.4, 10 mM), and Gem-ARA was dissolved in DMSO. The maximum amount of DMSO added per well was 0.9 μL, which was found non-toxic. The number of viable cells after the incubation was determined using an MTT assay as described above. The 50% inhibition concentration (IC50) values were estimated using GraphPad prism 5 parameters curve fittings.

Panc-02 cells = assay: Anti-proliferative activity, MTT assay, Panc-02 cells; format: cell-based; details: Mus musculus, Panc02, 24 h
Experimental: (§2) The anti-proliferative activity of Gem-DHA was evaluated in Panc-02, TC-1, Panc-1-Luc, and BxPC-3 cell lines. For Panc-02 and TC-1 cells, cells (1,500/well for Panc-02 and 3,000/well for TC-1) were seeded in 96-well plates and incubated at 37° C. and 5% CO2 overnight. The cells were then treated with various concentrations of Gem-DHA or other compounds for 24 h. For BxPC-3 and Panc-1-Luc cells, 3,000 and 1,000 cells/well were used, respectively, and cells were co-incubated with the Gem-DHA for 72 h. Cell viability was determined using an MTT assay as previously described (Naguib YW et al. Mol Pharm. 2014, 11(4), 1239-1249). Gemcitabine HCl was dissolved in cell culture medium, whereas Gem-DHA and DHA were dissolved in dimethylsulfoxide (DMSO). The values of IC50 were calculated using GraphPad Prism (GraphPad software, Inc., La Jolla, CA).

MIA PaCa-2 cells = assay: Cytotoxicity of Gem-ARA, MTT assay, MIA PaCa-2 cells; format: cell-based, human; details: Homo sapiens, up to 72 h, mean ± SD (n>3)
Experimental: as §1

Panc-02 tumor cells = assay: Cytotoxicity after 4 h co-incubation, MTT test; format: cell-based, mouse; details: Panc-02 cells, at concentrations of more than 80 μM
Experimental: The mechanisms underlying the cytotoxicity of the Gem-DHA may be different from that of gemcitabine. For example, in cell culture studies, Panc-02 cells were seeded into 96-well plates (1,500 cells per well) and incubated at 37° C., 5% CO2 for 24 h. They were then co-incubated with various concentrations of Gem-DHA, gemcitabine HCl alone, or DHA alone for 4 h, and cell viability was determined using an MTT test.

Panc-1-Luc tumors [3] = assay: Antitumor activity against orthotopic Panc-1-Luc tumors in nude mice, with tumor histology; format: in vivo
Excerpt: Nude mice with intrapancreatically injected Panc-1-Luc human pancreatic cancer cells were used as a mouse model of pancreatic cancer. The National Institutes of Health guidelines for animal use and care were followed Animal protocols were approved by the Institutional Animal Care and Use Committee at the University of Texas at Austin. Panc-1-Luc cells (Muniz VP et al. Mol Cancer Res. 2011, 9(7), 867-877) were implanted orthotopically by injecting 1×10^6 cells into (the tail of) the pancreas.
Panc-1-Luc cell suspension was prepared at a concentration of 2×10^7 per ml in a 1:1 (v/v) mixture of DMEM and Matrigel. Tumor cells were then injected into the pancreas of male athymic nude mice (6-8 weeks, Charles River Laboratories, Wilmington, Mass.) following a surgical procedure (Raut CP et al. Cancer Biol Ther. 2004, 3(12), 1217-1224; Bruns CJ et al. Neoplasia. 1999, 1(1), 50-62). Briefly, after mice were anesthetized using isoflurane, the skin and peritoneum were cut open about 1 cm in length using sterile surgical scalpels. The pancreas was pulled out, and 50 μL of the cell suspension were injected slowly until a small bleb was formed. After the needle was withdrawn, a small cotton plug was applied for 10 s. The pancreas was returned back, the peritoneum was sutured with Monocryl™ bioresorbable sutures (Ethicon, Somerville, N.J.), and the skin was then closed using surgical clips. Mice were s.c. injected with buprenorphine (0.1 mg/kg) as a pain killer and were left to heal for one week. Tumor progress was monitored using an IVIS™ Spectrum imaging system (Caliper, Hopkinton, MA). For IVIS imaging, each mouse was i.p. injected with a luciferin solution (15 mg/ml) at a dose of 0.15 mg/g body weight in sterile DPBS, anesthetized with isoflurane, and imaged 10 min after luciferin injection. Four weeks after tumor implantation, mice with tumors were randomized into 3 groups (n=5-7) and intraperitoneally injected (i.p) with Gem-DHA (50 mg/kg, ˜0.087 mmole/kg), gemcitabine HCl (26.1 mg/kg, ˜0.087 mmole/kg), or left untreated. Gem-DHA was in a Tween 80/ethanol/water solution with 5% (w/v) of mannitol, and gemcitabine HCl was in sterile mannitol solution (5%, w/v). Treatments were repeated twice a week for a total 7 doses. Thirty days after the first treatment, mice were sacrificed and tumors were dissected from the pancreas, weighed, and fixed in formalin. The doses were based on the average weight of mice in the same group on the day of injection, and were adjusted only if the weight of an individual mouse was above or below 10% of the average weight.
Tumor tissues were sectioned and stained in the Histology and Tissue Analysis Core at Dell Pediatric Research Institute at the University of Texas at Austin or in the Department of
Molecular Carcinogenesis at the University of Texas M.D. Anderson Cancer Center at Science Park (Smithville, Texas) with hematoxylin & eosin (H&E), antibodies against cleaved lamin-A (apoptosis marker), CD-31 (angiogenesis marker), or Ki-67 (proliferation marker). Slides were then scanned, and images were taken using the ScanScope XT (Aperio Technologies, Vista, CA). […] In addition, several areas of necrosis can also be seen in the centers of the tumors. […] Several pyknotic cells with condensed chromatin can also be seen in tumors in mice that were treated with Gem-DHA.

[4] = test system: advanced pancreatic cancer; details: cited from earlier work
[5] = biological target: deoxycytidinedeaminases (dCDA) (Homo sapiens, UniProt P32320); details: upon injection, extracellularly and intracellularly; cited from earlier work
Panc-1-Luc tumors [6] = assay: Orthotopic Panc-1-Luc tumors in nude mice: gemcitabine HCl versus mixture with DHA; format: in vivo; details: about 0.11 mmole/kg each, twice a week, 10 times, started 2 weeks after implantation
Experimental: The doses of both gemcitabine HCl (˜33.7 mg/kg) and DHA (˜35.3 mg/kg) were about 0.11 mmole/kg. Mice were sacrificed in the 8th week after tumor implantation, and the tumors were excised and weighed. The doses were based on the average weight of mice in the same group on the day of injection, and were adjusted only if the weight of an individual mouse was above or below 10% of the average weight.

BxPC-3 cells [7] = assay: Anti-proliferative activity, MTT assay, BxPC-3 cells; format: cell-based, human; details: Homo sapiens; BxPC-3 cells, 72 h
Experimental: as §2

Sequence of deoxycytidinedeaminases (dCDA) (P32320 whole entry): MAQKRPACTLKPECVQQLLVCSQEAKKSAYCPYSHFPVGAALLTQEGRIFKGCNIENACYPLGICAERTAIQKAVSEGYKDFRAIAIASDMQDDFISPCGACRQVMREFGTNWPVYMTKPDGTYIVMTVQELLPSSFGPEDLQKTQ

Nc1ccn([C@@H]2O[C@H](CO)[C@@H](O)C2(F)F)c(=O)n1 [Gemcitabine HCl, 2′, 2′-difluorodeoxycytidine, reference compound]
Percent of injected compound recovered in each gram of pancreas [1]: 0.07±0.03% | IC50 (BxPC-3 cells [2]): 5.52 ± 4.55 nM | IC50 (Panc-02 cells): 4 ± 1.5 nM | IC50 (MIA PaCa-2 cells): 50.2 ± 3 nM | Cytotoxicity after 4 h of co-incubation (Panc-02 tumor cells): did not show any significant cytotoxicity | Average tumor weight at the end of the study (Panc-1-Luc tumors [3]; 30 days after first treatment, versus untreated): not significantly different from that in mice that were left untreated | Inhibition of growth of Panc-1-Luc tumors (Panc-1-Luc tumors [3]; i.p., ~0.087 mmole/kg (Gem-DHA 50 mg/kg, gemcitabine HCl 26.1 mg/kg), twice a week, 7 doses): did not significantly inhibit the growth | Cleaved lamin-A positive staining in tumors (Panc-1-Luc tumors [3]; versus untreated mice): not different from that in mice that were not treated | Micro-vessel density (MVD) in tumors, anti-CD-31 staining (Panc-1-Luc tumors [3]; versus untreated mice): not different from that in mice that were not treated | Improvement in median survival duration ([4]; patients with advanced pancreatic cancer): 5 week | 12-month survival ([4]; standard care for advanced pancreatic cancer): 18% | Fraction deaminated to dFdU [5]: over 90% | Control of tumor growth (tumor weight) (Panc-1-Luc tumors [6]): did not reveal any significant difference | IC50 (BxPC-3 cells [7]): 18.5 ± 14.5 nM
